These are literature values, as cited in patent publication US9757705B2, “Method for production of concentrates of preferably water-soluble active agents” (KWIZDA AGRO GMBH, priority 2013, dated 2017).

For the data set the following is noted: at 20° C.; according to literature.

For the compound `C/C(=N\C#N)N(C)Cc1ccc(Cl)nc1` [Acetamiprid], the solubility was 400 mg/100 ml.
